According to ChEMBL document CHEMBL1146187, “Synthesis, molecular modeling studies, and selective inhibitory activity against monoamine oxidase of N,N'-bis[2-oxo-2H-benzopyran]-3-carboxamides” (Bioorg Med Chem Lett, 2006):

Columns and labels:
[1] = biological target: T1, Amine oxidase [flavin-containing] B (Bos taurus, UniProt P56560); experiment: Inhibition of bovine brain mitochondrial MAOB
T1 sequence (P56560 whole entry): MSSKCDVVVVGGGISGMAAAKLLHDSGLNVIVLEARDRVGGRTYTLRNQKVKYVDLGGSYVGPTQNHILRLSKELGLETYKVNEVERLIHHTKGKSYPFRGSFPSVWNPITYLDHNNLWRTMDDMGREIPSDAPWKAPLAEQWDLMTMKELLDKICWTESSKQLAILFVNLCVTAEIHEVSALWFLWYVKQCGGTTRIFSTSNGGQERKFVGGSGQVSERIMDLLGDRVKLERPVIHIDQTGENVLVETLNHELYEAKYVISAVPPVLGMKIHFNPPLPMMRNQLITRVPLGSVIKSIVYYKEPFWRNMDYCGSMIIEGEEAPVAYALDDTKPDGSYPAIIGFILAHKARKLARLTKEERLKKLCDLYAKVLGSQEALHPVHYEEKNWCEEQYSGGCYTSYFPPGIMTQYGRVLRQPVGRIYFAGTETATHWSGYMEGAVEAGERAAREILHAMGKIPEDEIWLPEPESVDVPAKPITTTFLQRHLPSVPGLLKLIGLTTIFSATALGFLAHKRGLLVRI

[2] = biological target: T2, Amine oxidase [flavin-containing] A (Bos taurus, UniProt P21398); experiment: Inhibition of bovine brain mitochondrial MAOA
T2 sequence (P21398 whole entry): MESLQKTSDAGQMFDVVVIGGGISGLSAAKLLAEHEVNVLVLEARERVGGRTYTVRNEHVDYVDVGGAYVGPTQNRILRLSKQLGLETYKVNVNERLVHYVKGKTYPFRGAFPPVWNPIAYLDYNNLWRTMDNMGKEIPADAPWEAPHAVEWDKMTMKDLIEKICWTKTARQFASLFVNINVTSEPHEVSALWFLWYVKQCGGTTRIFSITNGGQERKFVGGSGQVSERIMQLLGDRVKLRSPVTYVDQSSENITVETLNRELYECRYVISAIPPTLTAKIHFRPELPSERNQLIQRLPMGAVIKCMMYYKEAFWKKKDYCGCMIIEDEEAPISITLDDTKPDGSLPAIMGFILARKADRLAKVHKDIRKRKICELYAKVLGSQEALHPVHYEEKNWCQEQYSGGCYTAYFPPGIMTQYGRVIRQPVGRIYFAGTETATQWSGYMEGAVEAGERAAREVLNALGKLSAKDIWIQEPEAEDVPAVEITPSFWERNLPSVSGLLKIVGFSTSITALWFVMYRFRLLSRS

| SMILES | Ki [1] [µM] | Ki [2] [µM] |
| --- | --- | --- |
| O=C(Nc1ccccc1NC(=O)c1cc2ccccc2oc1=O)c1cc2ccccc2oc1=O | 3.02 | 0.0162 |
| O=C(NCCCCNC(=O)c1cc2ccccc2oc1=O)c1cc2ccccc2oc1=O | 1 | 0.001 |
| O=C(NCCNC(=O)c1cc2ccccc2oc1=O)c1cc2ccccc2oc1=O | 6.31 | 0.0331 |
| O=C(N[C@H]1CCCC[C@@H]1NC(=O)c1cc2ccccc2oc1=O)c1cc2ccccc2oc1=O | 1.41 | 0.182 |

Other lines, results leading:

| Ki [1] [µM] | Ki [2] [µM] | SMILES |
| --- | --- | --- |
| 1.74 | 2.4 | O=C(Nc1ccc(NC(=O)c2cc3ccccc3oc2=O)cc1)c1cc2ccccc2oc1=O |
| 1.82 | 0.00398 | O=C(NCCCCCCNC(=O)c1cc2ccccc2oc1=O)c1cc2ccccc2oc1=O |
| 1.41 | 0.17 | COc1ccc2cc(C(=O)NCCCCNC(=O)c3cc4ccc(OC)cc4oc3=O)c(=O)oc2c1 |
